Test results published in patent US7803930B2, “Antisense modulation of apolipoprotein B-expression” (Isis Pharmaceuticals, Inc., priority 2002, dated 2010).
In the oligonucleotide strings, read from the 5' end, every base follows the letter of its sugar. An asterisk marks phosphorothioate; unmarked linkages are phosphodiester. Other units and linkages are bracketed, terminal groups are in braces. A string of capitals states the bases alone. e = 2'-O-(2-methoxyethyl) (MOE); [5mC] = 5-methylcytosine; d = 2'-deoxy (DNA)

Tests used:
[1] = test system: mouse apolipoprotein B mRNA; assay: Inhibition of mouse apolipoprotein B mRNA levels in primary mouse hepatocytes, real-time PCR; type: cell-based
How it was run: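 Primary CD-1 mouse hepatocytes transfected at 80% confluency with oligonucleotide plus 3.75 μg/mL LIPOFECTIN for 4-7 h, harvested 16-24 h after treatment. ApoB mRNA measured by real-time quantitative PCR against a standard curve of untreated-control mRNA, giving percent inhibition; GAPDH primers/probe also used.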

[2] = Long-term study in lean CD-1 mice (Example 63): serum lipids and indicators of toxicity (ALT, AST, histology, steatosis); type: in vivo, mouse; details: one month
Description: In accordance with the present invention, the toxicity of ISIS 301012 (SEQ ID NO: 247) is investigated in a long-term, 3 month study in mice. Two-month old male and female CD-1 mice (Charles River Laboratories, Wilmington, Mass.) are dosed with 2, 5, 12.5, 25 or 50 mg/kg of ISIS 301012 twice per week for first week, and every 4 days thereafter. The mice are maintained on a standard rodent diet. Saline and control oligonucleotide animals serve as controls and are injected on the same schedule. Each treatment group contains 6 to 10 mice of each sex, and each treatment group is duplicated, one group for a 1 month study termination, the other for a 3 month study termination. After the 1 or 3 month treatment periods, the mice are sacrificed and evaluated for target expression in liver, lipid levels in serum and indicators of toxicity. Liver samples are procured, RNA is isolated and apolipoprotein B mRNA expression is measured by real-time PCR as described in other examples herein. Serum lipids, including total cholesterol, LDL-cholesterol, HDL-cholesterol and triglycerides, are evaluated by routine clinical analysis using an Olympus Clinical Analyzer (Olympus America Inc., Melville, N.Y.). Ratios of LDL-cholesterol to HDL-cholesterol and total cholesterol to HDL-cholesterol are also calculated. Analyses of serum ALT and AST, inflammatory infiltrates in tissue and basophilic granules in tissue provide an assessment of toxicities related to the treatment. Hepatic steatosis, or accumulation of lipids in the liver, is assessed by routine histological analysis with oil red 0 stain and measurement of liver tissue triglycerides using a Triglyceride GPO Assay (Sigma-Aldrich, St. Louis, Mo.).
The toxicity study also includes groups of animals allowed to recover following cessation of oligonucleotide treatment. Both male and female CD-1 mice (Charles River Laboratories, Wilmington, Mass.) are treated with 5, 10, 50 mg/kg of ISIS 301012 twice per week for the first week and every 4 days thereafter. Saline and, control oligonucleotide injected animals serve as controls. Each treatment group includes 6 animals per sex. After 3 months of treatment, animals remain untreated for an additional 3 months, after which they are sacrificed. The same parameters are evaluated as in the mice sacrificed immediately after 3 months of treatment.
Additionally, the expected dose-response toxicities were observed. ALT and AST levels, measured by routine clinical procedures on an Olympus Clinical Analyzer (Olympus America Inc., Melville, N.Y.), are increased in mice treated with 25 or 50 mg/kg of ISIS 301012. Tissues were prepared for analysis by routine histological procedures.

147764 (eG*eT*e[5mC]*e[5mC]*e[5mC]*dT*dG*dA*dA*dG*dA*dT*dG*dT*d[5mC]*eA*eA*eT*eG*e[5mC]) [compound 147764]
% INHIB ([1]; Table 3, 150 nM, averages from two experiments): 97%
Percent Inhibition 50 nM ([1]; Table 4, 50 nM): 48%
Percent Inhibition 150 nM ([1]; Table 4, 150 nM): 84%
Percent Inhibition 300 nM ([1]; Table 4, 300 nM): 90%

ISIS 301012: SEQ ID NO: 247, antisense oligonucleotide targeted to human apolipoprotein B (antisense GCCTCAGTCTGCTTCGCACC; chemistry not given here)
ALT and AST levels ([2]; 25 or 50 mg/kg): increased
doses at which basophilic granules in liver and kidney tissue were observed [2]: above 12.5 mg/kg
doses at which mild lymphohistiocytic infiltrates were observed in various tissues [2]: above 12.5 mg/kg
steatosis (oil red O staining) [2]: no steatosis
